Literature values as cited in patent US8709164B2, “Methods and compositions for dislodging debris particles from a substrate” (University of South Carolina, priority 2010, dated 2014).

Columns and labels:
[1] = test system: D. farinae; settings: among 15 chemicals
[2] = test system: D. pteronyssinus; settings: washing soak with addition of 0.03% benzyl benzoate

Row | Compound | ability to kill D. farinae (words, order of potency) [1] | mites survived out of 10,000 [2]
1 | CCN(CC)c1nc(C)cc(OP(=S)(OC)OC)n1 [pirimiphosmethyl] | most effective | 
2 | Cl[C@H]1[C@H](Cl)[C@@H](Cl)[C@@H](Cl)[C@H](Cl)[C@H]1Cl [Lindane] | most effective | 
3 | O=C(OCc1ccccc1)c1ccccc1 [benzyl benzoate] | most effective | approximately 50
